According to patent publication US12448363B2, “Kinase inhibitors” (Vidya Therapeutics, Inc., priority 2020, dated 2025):
pIC50: −log10 of the molar value.

Legend:
[1] = test system: BTK Activity in RAMOS B Cells; assay: Assay to determine BTK activity in RAMOS B cells (anti-IgM, FLIPR Calcium 6); type: cell-based; details: EC80 anti-IgM, FLIPR calcium read
Procedure: On the day before assay, Ramos B cells were plated in plating medium (RPMI1640 medium containing 1% FBS and 1× pencillin-streptomycin). On the day of the assay, 2× dye solution was prepared following the manual of the FLIRP Calcium 6 Assay Kit: Dilute the dye with assay buffer (20 mM HEPES in 1×HBSS, pH7.4); Add probenecid to the final concentration of 5 mM; vortex vigorously for 1-2 minutes. Cells were collected by centrifuging, and the pellet was resuspended in plating medium. After counting, cells were resuspended at a density of 3×10^6/ml in plating medium. Equal volume of 2× dye solution was added to the cell suspension. Cells were then plated at 20 μl/well into a 384-well poly-D-lysine coated plate. Plate was centrifuged at 1000 rpm for 3 minutes and then incubated at 37° C. for 2 hours followed by an additional 15-minute incubation at 25° C. Compounds were prepared at 3× concentration in dilution buffer (20 mM HEPES and 0.1% BSA in 1×HBSS, pH 7.4). Serially diluted compound was transferred from source plate to a 384-well compound plate by using an Echo 550 (Labcyte). 20 μl/well compound dilution buffer was added to the compound plate and mixed on plate shaker for 2 mins. 4×EC80 of Anti-IgM (Jackson ImmunoResearch) was prepared in dilution buffer and 20 μl/well was added to a new 384-well compound plate. After 60 mins of incubation at 25° C. in the dark; cell plate, compound plate containing 4×EC80 of anti-IgM and FLIPR tips were placed into FLIPR (Molecular Devices). 10 ul/well of 4×EC80 anti-IgM was transferred to the cell plate by FLIPR. Plates were read for 160 sec with 1 sec interval.
With respect to Ramos activity, Table 9 lists activity as follows: • “A” denotes an IC50 of less than 10 nM; • “B” denotes an IC50 of from 10 nM to less than 100 nM; and • “C” denotes and IC50 of 100 nM or more.

BTK = BTK (Homo sapiens, UniProt Q06187); assay: Assay to determine activity against BTK (EZ reader, FLPeptide); type: biochemical; design: purchased Carna; details: ATP (1 mM), BTK (2 nM), room temperature for 90 minutes
Sequence of BTK (Q06187 whole entry): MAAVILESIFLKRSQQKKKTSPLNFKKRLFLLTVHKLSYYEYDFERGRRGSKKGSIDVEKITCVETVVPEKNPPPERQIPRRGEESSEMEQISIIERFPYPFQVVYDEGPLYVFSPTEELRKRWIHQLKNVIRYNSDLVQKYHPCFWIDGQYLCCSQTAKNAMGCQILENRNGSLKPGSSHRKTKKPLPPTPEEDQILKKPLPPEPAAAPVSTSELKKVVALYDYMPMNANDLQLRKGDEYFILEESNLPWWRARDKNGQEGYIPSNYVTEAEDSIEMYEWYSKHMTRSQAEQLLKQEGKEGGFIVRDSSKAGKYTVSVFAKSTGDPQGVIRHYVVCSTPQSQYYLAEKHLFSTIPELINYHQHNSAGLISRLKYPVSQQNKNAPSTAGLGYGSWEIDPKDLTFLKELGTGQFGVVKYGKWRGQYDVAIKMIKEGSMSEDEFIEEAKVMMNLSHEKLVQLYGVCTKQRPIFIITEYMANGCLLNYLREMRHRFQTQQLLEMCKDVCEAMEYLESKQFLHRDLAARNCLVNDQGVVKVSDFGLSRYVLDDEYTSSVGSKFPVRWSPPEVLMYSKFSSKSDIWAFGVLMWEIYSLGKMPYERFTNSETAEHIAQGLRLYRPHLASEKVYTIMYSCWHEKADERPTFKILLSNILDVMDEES
Procedure: Solutions of compounds (test or control) in DMSO were prepared at the desired concentrations, and serially diluted to 11 concentrations by 3-fold dilution in 384pp-plate using TECAN EVO200. 20 nL of stock were transferred to 384 plate using Echo550. DMSO was used as vehicle control.
Two separate solutions were prepared—an ATP solution containing MgCl2 (10 mM), Brij-35 (0.01%), DTT (2 mM), BSA (0.05%), EGTA (1 mM), HEPE (pH7.5) (50 mM), FLPeptide (6 uM) and ATP (4 mM); and a BTK solution containing MgCl2 (10 mM), Brij-35 (0.01%), DTT (2 mM), BSA (0.05%), EGTA (1 mM), HEPE (pH7.5) (50 mM) and BTK (2.67 nM). […] (Note the final volume of each well was 20 uL containing MgCl2 (10 mM), Brij-35 (0.01%), DTT (2 mM), BSA (0.05%), EGTA (1 mM), HEPE (pH7.5) (50 mM), FLPeptide (1.5 uM), ATP (1 mM) and BTK (2 nM).
The plates were incubated at room temperature for 90 minutes and then stopping buffer added (75 uL, containing 0.5 M EDTA) to terminate the reaction. Samples from each well were analyzed using EZ reader. The % remaining activity was calculated using read conversion ratio (CR) according to the equation: […]
XLFit (equation 201) was used to calculate IC50s by floating both bottom and top.
With respect to BTK activity, Table 4 lists activity as follows: • “A” denotes an IC50 of less than 10 nM, • “B” denotes an IC50 of from 10 nM to less than 100 nM; and • “C” denotes and IC50 of 100 nM or more.

SMILES | pIC50 ([1]; Homo sapiens, Ramos) | pIC50 (BTK) | pIC50 [1]
C=CC(=O)N[C@H]1C[C@@H](O)CN(c2c(F)cc(C(N)=O)c3[nH]c(C)c(C)c23)C1 [Compound 37, 4-((3S,5R)-3-acrylamido-5-hydroxypiperidin-1-yl)-5-fluoro-2,3-dimethyl-1H-indole-7-carboxamide] | ≤ 7.00 | 7.00 to 8.00 | –
C=CC(=O)N1Cc2cccc(-c3c(F)cc(C(N)=O)c4[nH]c(C)c(Cl)c34)c2C2(CC2)C1 [Compound 24a, 4-(2′-Acryloyl-2′,3′-dihydro-1′H-spiro[cyclopropane-1,4′-isoquinolin]-5′-yl)-3-chloro-5-fluoro-2-methyl-1H-indole-7-carboxamide] | ≤ 7.00 | 7.00 to 8.00 | –
C=CC(=O)N1CCC=C(c2c(F)c(F)c(C(N)=O)c3[nH]c(C)c(C#N)c23)C1 [Compound 5, 4-(1-acryloyl-1,2,5,6-tetrahydropyridin-3-yl)-3-cyano-5,6-difluoro-2-methyl-1H-indole-7-carboxamide] | 7.00 to 8.00 | > 8.00 | –
C=CC(=O)N1Cc2cccc(-c3c(F)cc(C(N)=O)c4[nH]c(C)c(Cl)c34)c2C2(CC2)C1 (single isomer, unassigned) [Compound 24c] | ≤ 7.00 | 7.00 to 8.00 | –
C=CC(=O)N1CCc2c(cccc2-c2c(F)cc(C(N)=O)c3[nH]c(C)c(F)c23)C1 (atropisomer, axis not shown) [Compound 20e, (S)-4-(2-acryloyl-1,2,3,4-tetrahydroisoquinolin-5-yl)-3,5-difluoro-2-methyl-1H-indole-7-carboxamide] | – | > 8.00 | > 8.00
C=CC(=O)N1C[C@H]2CCN(c3c(F)cc(C(N)=O)c4[nH]c(C)c(Cl)c34)C[C@@H]2C1 (racemic) [Compound 39, 4-(trans-2-acryloyloctahydro-5H-pyrrolo[3,4-c]pyridin-5-yl)-3-chloro-5-fluoro-2-methyl-1H-indole-7-carboxamide] | ≤ 7.00 | ≤ 7.00 | –
C=CC(=O)N[C@H]1C[C@@H](F)CN(c2c(F)cc(C(N)=O)c3[nH]c(C)c(C)c23)C1 [Compound 34, 4-((3S,5R)-3-acrylamido-5-fluoropiperidin-1-yl)-5-fluoro-2,3-dimethyl-1H-indole-7-carboxamide] | ≤ 7.00 | 7.00 to 8.00 | –
CC#CC(=O)N1CCC[C@@H](c2c(F)cc(C(N)=O)c3[nH]c(C)c(Cl)c23)C1 [Compound 18, (S)-4-(1-(but-2-ynoyl)piperidin-3-yl)-3-chloro-5-fluoro-2-methyl-1H-indole-7-carboxamide] | ≤ 7.00 | ≤ 7.00 | –
C=CC(=O)N1CCc2c(cccc2-c2c(F)cc(C(N)=O)c3[nH]c(C)c(F)c23)C1 (atropisomer, axis not shown) [Compound 20f, (R)-4-(2-acryloyl-1,2,3,4-tetrahydroisoquinolin-5-yl)-3,5-difluoro-2-methyl-1H-indole-7-carboxamide] | – | ≤ 7.00 | ≤ 7.00
C=CC(=O)N1Cc2cccc(-c3c(F)cc(C(N)=O)c4[nH]c(C)cc34)c2C2(CC2)C1 [Compound 24b, 4-(2′-acryloyl-2′,3′-dihydro-1′H-spiro[cyclopropane-1,4′-isoquinolin]-5′-yl)-5-fluoro-2-methyl-1H-indole-7-carboxamide] | ≤ 7.00 | ≤ 7.00 | –
C=CC(=O)N1CCCc2c(cccc2-c2c(F)cc(C(N)=O)c3[nH]c(C)c(Cl)c23)C1 (single isomer, unassigned) [Compound 25d] | – | 7.00 to 8.00 | ≤ 7.00
C=CC(=O)N1CCCC(c2c(F)cc(C(N)=O)c3[nH]c(C)c(C(F)F)c23)C1 (stereo not shown) [Compound 14, 4-(1-acryloylpiperidin-3-yl)-3-(difluoromethyl)-5-fluoro-2-methyl-1H-indole-7-carboxamide] | ≤ 7.00 | ≤ 7.00 | –
C=CC(=O)N1CCCC(c2c(F)cc(C(N)=O)c3[nH]c(C)c(Cl)c23)C1 (stereo not shown) [Compound 2, 4-(1-acryloylpiperidin-3-yl)-3-chloro-5-fluoro-2-methyl-1H-indole-7-carboxamide] | > 8.00 | > 8.00 | –
C=CC(=O)N1CCCc2c(cccc2-c2c(F)cc(C(N)=O)c3[nH]c(C)c(Cl)c23)C1 [Compound 25a, 4-(2-Acryloyl-2,3,4,5-tetrahydro-1H-benzo[c]azepin-6-yl)-3-chloro-5-fluoro-2-methyl-1H-indole-7-carboxamide] | 7.00 to 8.00 | 7.00 to 8.00 | –
C=CC(=O)N1CC(F)CC(c2c(F)cc(C(N)=O)c3[nH]c(C)c(Cl)c23)C1 (stereo not shown) [Compound 9, 4-(1-acryloyl-5-fluoropiperidin-3-yl)-3-chloro-5-fluoro-2-methyl-1H-indole-7-carboxamide] | > 8.00 | > 8.00 | –

Second part, the molecule after the results:

pIC50 ([1]; Homo sapiens, Ramos) | pIC50 (BTK) | pIC50 [1] | SMILES
≤ 7.00 | ≤ 7.00 | – | C=CC(=O)N1CC2CC1c1cccc(-c3c(F)cc(C(N)=O)c4[nH]c(C)c(Cl)c34)c12 (stereo not shown) [Compound 26, 4-(2-acryloyl-1,2,3,4-tetrahydro-1,4-methanoisoquinolin-5-yl)-3-chloro-5-fluoro-2-methyl-1H-indole-7-carboxamide]
≤ 7.00 | ≤ 7.00 | – | C=CC(=O)N1CCC[C@H](c2c(F)cc(C(N)=O)c3[nH]c(C)c(C(F)F)c23)C1 [Compound 11, (R)-4-(1-acryloylpiperidin-3-yl)-3-(difluoromethyl)-5-fluoro-2-methyl-1H-indole-7-carboxamide]
– | ≤ 7.00 | ≤ 7.00 | C=CC(=O)N1CCc2c(cccc2-c2c(F)cc(C(N)=O)c3[nH]c(C)c(Cl)c23)C1 (single isomer, unassigned) [Compound 20c]
≤ 7.00 | 7.00 to 8.00 | – | C=CC(=O)N1CCCc2c(cccc2-c2c(F)cc(C(N)=O)c3[nH]c(C)c(F)c23)C1 [Compound 25e, 4-(2-acryloyl-2,3,4,5-tetrahydro-1H-benzo[c]azepin-6-yl)-3,5-difluoro-2-methyl-1H-indole-7-carboxamide]
> 8.00 | > 8.00 | – | C=CC(=O)N1CCCC(c2c(F)c(F)c(C(N)=O)c3[nH]c(C)c(Cl)c23)C1 (stereo not shown) [Compound 3, 4-(1-acryloylpiperidin-3-yl)-3-chloro-5,6-difluoro-2-methyl-1H-indole-7-carboxamide]
7.00 to 8.00 | 7.00 to 8.00 | – | C=CC(=O)N[C@H]1C[C@H](O)CN(c2c(F)cc(C(N)=O)c3[nH]c(C)c(C)c23)C1 [Compound 38, 4-((3S,5S)-3-acrylamido-5-hydroxypiperidin-1-yl)-5-fluoro-2,3-dimethyl-1H-indole-7-carboxamide]
– | ≤ 7.00 | ≤ 7.00 | C=CC(=O)N1CCc2c(cccc2-c2c(F)c(F)c(C(N)=O)c3[nH]c(C)c(Cl)c23)C1 (atropisomer, axis not shown) [Compound 21c, (S)-4-(2-acryloyl-1,2,3,4-tetrahydroisoquinolin-5-yl)-3-chloro-5,6-difluoro-2-methyl-1H-indole-7-carboxamide]
– | ≤ 7.00 | ≤ 7.00 | C=CC(=O)N1Cc2cccc(-c3c(F)cc(C(N)=O)c4[nH]c(C)c(Cl)c34)c2C2(CC2)C1 (single isomer, unassigned) [Compound 24d]
